Residue numbers refer to the chain shown, from its start. Names and notes keep the numbering of the source. “Also recorded” adds a separate entry of the source. Positions of bridges follow the written chain, without caps; N, C: chain ends. Non-standard residues stand in square brackets, D forms with d. Residues, ends and D or L forms follow the SMILES beside them. No end group written: not given here. *: point of attachment. 5FAM = O=C1OC2(c3ccc(O)cc3Oc3cc(O)ccc32)c2ccc(C(=O)*)cc21; S5 = C=CCCC[C@](C)(N)C(=O)O; PEG2 = NCCOCCOCCC(=O)O

One assay deals with T1, RalA·GDP (Homo sapiens, UniProt P11233, Q72L).
T1 construct: RalA (pMAT10, residues 1–184, Q72L); His6-MBP (cleaved yes); made in house
T1 sequence (P11233 1-184 Q72L): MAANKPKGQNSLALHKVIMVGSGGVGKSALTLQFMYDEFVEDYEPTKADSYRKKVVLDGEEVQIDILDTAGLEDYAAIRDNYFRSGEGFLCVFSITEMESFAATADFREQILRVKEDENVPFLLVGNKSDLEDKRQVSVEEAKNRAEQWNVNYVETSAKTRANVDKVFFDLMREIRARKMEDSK
The assay is described as follows: Direct-binding fluorescence polarization, RalA·GDP. The settings on record: 20 nM FAM-labeled peptide, n = 3, NB = no binding; for Kd: read-out: Kd RalA·GDP, FP. As for the experimental part:
(§1) FP experiments were performed on a BMG Labtech Pherastar fluorimeter at 298 K with excitation at 485 nm and emission at 520 nm as described previously ([34]), using 20 nM FAM-labeled peptide. Plates were read after 30 min incubation at room temperature. Data were fitted to a single-site binding model using nonlinear regression analysis in GraphPad prism 8.4 to obtain Kd values and their standard errors.
In general terms: Polarisation of emitted light reports the rotation of a fluorescent probe.

The target in a further assay is T2, RhoA·GMPPNP (Homo sapiens, UniProt P61586, F25N/Q63L).
T2 construct: RhoA (pGEX-2T, 1–186, F25N/Q63L); GST (cleaved yes); made in house
The assay can be described thus: Direct-binding fluorescence polarization, RhoA. The settings on record: 20 nM FAM-labeled peptide, n = 3, NB = no binding, GTPase up to 100 μM; for Kd: read-out: Kd RhoA·GMPPNP, FP. The procedure: as §1

Another assay deals with T3, Rac1·GMPPNP (Homo sapiens, UniProt P63000, Q61L).
T3 construct: Rac1 (pGEX-2T, 1–185, Q61L); GST (cleaved yes); made in house
The assay is described as follows: Direct-binding fluorescence polarization, Rac1. As to conditions: 20 nM FAM-labeled peptide, n = 3, NB = no binding, GTPase up to 100 μM; for Kd: read-out: Kd Rac1·GMPPNP, FP. As for the experimental part: as §1

The next assay deals with RalA. The assay can be described thus: Direct-binding SPA of RalA to His-tagged RLIP76 RBD variants. As to conditions: 80 nM His-tagged RBD, n = 2; for apparent Kd RalA, direct SPA (Fig. S1): [3H]GTP-labelled RalA titrated, experiment of Fig. S1.
Assay [1] has as its target T4, RalA (residues 1-184, Q72L) (UniProt P11233 1-184, Q72L).
T4 construct: RalA small GTPase, residues 1-184, constitutively active Q72L; Loaded with [3H]GTP for the SPAs; also called [3H]GTP-labelled RalA; source: expressed from pMAT10 as His6-MBP fusion, prepared and cleaved from its tags as described previously
T4 sequence (looked up): T1 sequence (P11233 1-184 Q72L)
The assay is described as follows: fluorescence polarisation; direct binding of 20 nM FAM-labelled peptide to varying concentrations of small GTPase; 298 K; read after 30 min at room temperature; single-site binding model; n >= 2. The settings on record: both partners purified.

The target of assay [2] is T5, RalB (residues 1-185, Q72L) (UniProt P11234 1-185, Q72L).
T5 construct: source: expressed from pMAT10 as His6-MBP fusion, prepared and cleaved from its tags as described previously
T5 sequence (looked up): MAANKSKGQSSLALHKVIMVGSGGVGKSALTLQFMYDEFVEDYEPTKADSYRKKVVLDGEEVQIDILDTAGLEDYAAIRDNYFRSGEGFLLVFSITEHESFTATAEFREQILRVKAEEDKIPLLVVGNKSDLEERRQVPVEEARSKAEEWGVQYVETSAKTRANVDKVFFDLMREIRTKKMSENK
The assay is described as above. The settings on record: both partners purified.

Assay [3] addresses T6, RalA (residues 1–184, Q72L) (UniProt P11233 1-184, Q72L).
T6 construct: RalA small GTPase, residues 1-184, constitutively active Q72L; Loaded with [3H]GTP for SPA, with GMPPNP or GDP for fluorescence polarisation; also called RalA·GTP; [3H]-GTP RalA; source: expressed from pMAT10 as His6-MBP fusion, cleaved from its tag as described previously
T6 sequence (looked up): T1 sequence (P11233 1-184 Q72L)
The assay can be described thus: scintillation proximity assay (competition); His-tagged wild-type RLIP76 RBD immobilised on SPA beads, fixed [3H]GTP·RalA (100 nM) or [3H]GTP·RalB (250 nM), competitor RBD or peptide titrated; pure competition model, apparent Kd (Ki). As to conditions: both partners purified. For orientation: In a scintillation proximity assay essentially only radioactivity close to the scintillant gives light.

The target of assay [4] is T6, RalA (residues 1–184, Q72L). Described as above. The settings on record: both partners purified. This is another data set of the same source.
Assay [5] concerns the target T7, RalB (residues 1–185, Q72L) (UniProt P11234 1-185, Q72L).
T7 construct: Loaded with [3H]GTP for SPA, with GMPPNP for ITC, FP and crystallisation; also called RalB·GTP; source: expressed from pMAT10 as His6-MBP fusion, cleaved from its tag as described previously
T7 sequence (looked up): T5 sequence (looked up)
The description is as above. As to conditions: both partners purified.

T2 sequence (P61586 1-186 F25N/Q63L): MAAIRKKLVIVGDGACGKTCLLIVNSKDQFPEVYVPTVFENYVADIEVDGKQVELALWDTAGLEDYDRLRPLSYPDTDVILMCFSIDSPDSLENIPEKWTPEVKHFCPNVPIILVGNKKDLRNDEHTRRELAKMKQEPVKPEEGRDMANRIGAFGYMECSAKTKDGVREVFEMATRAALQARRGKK

Regarding `CC[C@H](C)[C@H](NC(=O)[C@H](CCCNC(=N)N)NC(=O)[C@H](CC(C)C)NC(=O)[C@H](CCC(=O)O)NC(=O)[C@H](CCC(=O)O)NC(=O)[C@H](Cc1c[nH]c2ccccc12)NC(=O)[C@H](CC(C)C)NC(=O)[C@]1(C)CCCC=CCCC[C@](C)(NC(=O)[C@H](CC(C)C)NC(=O)CCOCCOCCNC(=O)c2ccc3c(c2)C(=O)OC32c3ccc(O)cc3Oc3cc(O)ccc32)C(=O)N[C@@H](CCCCN)C(=O)N[C@@H](CCC(=O)O)C(=O)N[C@@H](Cc2c[nH]cn2)C(=O)N1)C(=O)N[C@@H](CCCCN)C(=O)N[C@H](C(=O)N[C@@H](C)C(=O)N[C@@H](CCC(=O)O)C(=O)N[C@@H](CCCNC(=N)N)C(=O)N[C@@H](CCCNC(=N)N)C(=O)N[C@@H](CCCCN)C(=O)N[C@@H](CCCCN)C(=O)N[C@@H](CCCNC(=N)N)C(=O)N[C@@H](CCC(=O)O)C(=O)N[C@@H](C)C(N)=O)[C@@H](C)O` [HLR-sol] ({5FAM-PEG2}-L[S5]KEH[S5]LWEELRIKTAERRKKREA-NH2; staple 2-6), on RalA·GDP, the “Kd RalA·GDP, FP” value was “binding was too weak” and the Kd was greater than 100 µM. Further, on RhoA·GMPPNP, the “Kd RhoA·GMPPNP, FP” value is reported as “binding was too weak” and the Kd is greater than 100 µM. Also, on Rac1·GMPPNP, the “Kd Rac1·GMPPNP, FP” value is reported as “binding was too weak” and the Kd is greater than 100 µM.
As to “ETQAGIKEEIRRQEFLLNSLHRDLQGGIKDLSKWDRAWEVSQILSALRRKLREA [WDASQSR]”, the “apparent Kd RalA, direct SPA (Fig. S2)” value on RalA ([3H]GTP-labeled RalA titrated, experiment of Fig. S2) is reported as “no fit could be obtained as binding was too weak; also recorded: did not bind”.
In the case of `CC[C@H](C)[C@H](NC(=O)[C@H](CCCNC(=N)N)NC(=O)[C@H](CC(C)C)NC(=O)[C@H](CCC(=O)O)NC(=O)[C@H](CCC(=O)O)NC(=O)[C@H](Cc1c[nH]c2ccccc12)NC(=O)[C@H](CC(C)C)NC(=O)[C@]1(C)CCCC=CCCC[C@](C)(NC(=O)[C@H](CC(C)C)NC(=O)CCOCCOCCNC(=O)c2ccc3c(c2)C(=O)OC32c3ccc(O)cc3Oc3cc(O)ccc32)C(=O)N[C@@H](CCCCN)C(=O)N[C@@H](CCC(=O)O)C(=O)N[C@@H](CCC(=O)O)C(=O)N1)C(=O)N[C@@H](CCCCN)C(=O)N[C@H](C(=O)N[C@@H](C)C(=O)N[C@@H](CCC(=O)O)C(=O)N[C@@H](CCCCN)C(=O)N[C@@H](CCCNC(=N)N)C(=O)N[C@@H](CCCCN)C(=O)N[C@@H](CCCCN)C(=O)N[C@@H](CCCNC(=N)N)C(=O)N[C@@H](CCC(=O)O)C(=O)N[C@@H](C)C(N)=O)[C@@H](C)O` [L-sol] ({5FAM-PEG2}-L[S5]KEE[S5]LWEELRIKTAEKRKKREA-NH2; staple 2-6), at RalA·GDP, the “Kd RalA·GDP, FP” value is on record as “binding was too weak” and the Kd is greater than 100 µM. In addition, on RhoA·GMPPNP, the “Kd RhoA·GMPPNP, FP” value is “binding was too weak” and the Kd is greater than 100 µM. Also, at Rac1·GMPPNP, the “Kd Rac1·GMPPNP, FP” value is “binding was too weak” and the Kd was greater than 100 µM.
With “LTTLR mutant: His-tagged RLIP76 RBD consensus sequence lacking the K440P substitution (ETQAGIKEEIRRQEFLLNSLHRDLQGGIKDLSKLTRLWEVTLILRALKRKLREA; also: His-tagged, tag position not given here)”, the results for the “apparent Kd RalA, direct SPA (Fig. S1)” value on RalA and on RalA (listed as E426L/E427T/Q433T/R434L/T437R) were “no fit could be obtained as binding was too weak” and “did not bind”, respectively.
Take 5FAM-L[S5]KEE[S5]LWEVQRILTALKRKLREA (staple 2-6): the Kd in assay [1] turned out to be 17.2 µM; in assay [2], 4.7 µM.
For 5FAM-L[S5]KEH[S5]LWEVLRILTALRRKLREA (staple 2-6) the same measures were 4.68 µM and 0.159 µM.

B1: wt-sol stapled peptide (peptide)
chain: L[S5]KEE[S5]LWEEQRIKTAEKRKKREA-NH2
modifications: staple 2-6; N-terminus assumed
SMILES: CC[C@H](C)[C@H](NC(=O)[C@H](CCCNC(=N)N)NC(=O)[C@H](CCC(N)=O)NC(=O)[C@H](CCC(=O)O)NC(=O)[C@H](CCC(=O)O)NC(=O)[C@H](Cc1c[nH]c2ccccc12)NC(=O)[C@H](CC(C)C)NC(=O)[C@]1(C)CCCC=CCCC[C@](C)(NC(=O)[C@@H](N)CC(C)C)C(=O)N[C@@H](CCCCN)C(=O)N[C@@H](CCC(=O)O)C(=O)N[C@@H](CCC(=O)O)C(=O)N1)C(=O)N[C@@H](CCCCN)C(=O)N[C@H](C(=O)N[C@@H](C)C(=O)N[C@@H](CCC(=O)O)C(=O)N[C@@H](CCCCN)C(=O)N[C@@H](CCCNC(=N)N)C(=O)N[C@@H](CCCCN)C(=O)N[C@@H](CCCCN)C(=O)N[C@@H](CCCNC(=N)N)C(=O)N[C@@H](CCC(=O)O)C(=O)N[C@@H](C)C(N)=O)[C@@H](C)O
For the molecule B1, the Kd in [3] is 48.6 µM.

B2: RLIP76 RBD WNASELR mutant (domain or fragment)
chain: ETQAGIKEEIRRQEFLLNSLHRDLQGGIKDLSKWNRAWEVSEILLALRRKLREA
notes: RLIP76 residues 423-446 (helix α2); Selected by CIS display; source: E. coli, recombinant; cleaved from its tag
As to B2, the Kd in assay [4] amounted to 2.75 µM; in assay [5], 10.3 µM.

B3: RLIP76 RBD WDASTAY mutant (domain or fragment)
chain: B2 chain with N35D, E42T, L45A, R48Y
notes: as for B2
Turning to B3, the Kd amounted to 0.53 µM in assay [4] and 1.2 µM in assay [5].

The values are drawn from article PMC7949049 (The Journal of Biological Chemistry, 2020).
